Experiments:
[1] = Liposomal CTC and MTC PK, single slow intravenous bolus, plasma HPLC; format: in vivo; settings: Balb/c mice
mouse CLP sepsis model = assay: Survival Study 1 (TP-936), CLP sepsis efficacy; format: in vivo, C57BL/6 mice; settings: CLP mice treated with saline and imipenem (imipenem-treated control)
From the text: Male and/or female C57BL/6 mice ordered from Envigo Laboratories or the Jackson Lab (Bar Harbor, Maine) were acclimated to housing conditions and handled in accordance with Animal Use Protocol (AUP) number TP-05. The animals were acclimated for approximately 1 week prior to study start. Only animals deemed healthy were included in this study. Animals were fed irradiated Teklad Global Rodent Diet 2918 and water ad libitum. Mice were group housed 5/cage in static cages with irradiated Teklad ⅛″ corn cob bedding 7902 inside bioBubble® Clean Rooms that provide H.E.P. A filtered air into the bubble environment at 100 complete air changes per hour. The environment was controlled to a temperature range of 74°±5° F. and a humidity range of 30-70%. Treatment groups were identified by cage card. Individual mice were identified by indelible marker on the base of the tail. All procedures carried out in this experiment were conducted in compliance with the laws, regulations, and guidelines of the National Institutes of Health and with the approval of the TransPharm Animal Care and Use Committee.
On Day −1, male and/or female mice were anesthetized through use of isoflurane and brought to a surgical plane. […]
Animals were monitored continually post-surgery, at least once every 2-3 minutes for approximately 30 minutes, until the animals had recovered and were able to move about on their own. […]

Row | AUC [1] | T1/2 [1] | SMILES | mortality (mouse CLP sepsis model)
1 | 260 µg·h/mL | 28.2 min | CC(/C=C/C=C(\C)C(=O)O)=C\C=C\C=C(C)\C=C\C=C(/C)C(=O)O [STC free drug, sodium trans-crocetinate] | –
2 | – | – | C[C@@H](O)[C@H]1C(=O)N2C(C(=O)O)=C(SCCN=CN)C[C@H]12 [imipenem] | 50%

— US20260191810A1, “CAROTENOID COMPOSITIONS AND USES THEREOF” (L.E.A.F. HOLDINGS GROUP LLC, priority 2019, published 2026)
